Data on 5 molecules can be found in patent US20260125379A1, “PRODRUG OF JAK KINASE INHIBITOR” (E-nitiate Biopharmaceuticals (Hangzhou) Co., Ltd, priority 2022, published 2026).

Data set [1] can be described thus: Fecal excretion (cumulative recovery) in rats after single gavage. The following applies: feces, SD rats. The class given is in vivo. The protocol: (§1) Compounds A1, A2, A3, B3, B6 and B3 were administered once to SD rats by gavage. The concentrations of medicaments and metabolites thereof in plasma were collected and measured at different time points, and the pharmacokinetic parameters of each compound were calculated to study the pharmacokinetic characteristics of the compounds in plasma of SD rats. Fecal samples at 8 and 24 hours were collected simultaneously, and the concentrations of prodrugs and degraded products were detected to investigate the excretion recovery rate.
(§2) Rats were grouped in groups of 3, and all SD rats were fasted overnight (12 hours or more) the day before the experiment. On the day of the experiment, after weighing the body weight, the rats were administrated once with compound A1, A2, A3, B3, B6, and B3 by gavage respectively. SD rats were able to resume eating 4 hours after administration and were able to drink freely during the experiment. 0.20 mL of blood was collected from the jugular vein before administration and at 0.5, 1, 2, 4, 8, 12, and 24 hours after administration, respectively, and was placed in EDTA-K2 anticoagulation tube. All whole blood samples were centrifuged at 1500 g to 1600 g for 10 minutes within half an hour after collection to separate plasma, which was stored in a refrigerator at a temperature of between −90° C. and −60° C. for sample analysis. All the feces from the metabolic cage chassis were collected at 24 h after administration and weighed accurately. The required volume of homogenate liquid (aqueous solution containing 20% methanol) was added at a weight/volume ratio of 1:10, and the resultant was homogenized and analyzed.

Data set [2] concerns the target JAK1 (Homo sapiens, UniProt P23458). The data set can be described thus: JAK1 kinase inhibition assay (ULight-JAK-1 substrate, Eu-labeled anti-phosphotyrosine antibody). The class given is biochemical. As to conditions: JAK1 10 nM, substrate 50 nM, ATP 40 μM, 2 hours at room temperature. How it is done: (§3) Example A: Activity Detection of JAK Kinase Small Molecule Inhibitors
(§4) Kinase reaction buffer was prepared with the following components: 50 mM HEPES, pH 7.5, 1 mM EGTA, 10 mM MgCl2, 2 mM DTT, 0.01% Tween20.
(§5) Detection buffer was prepared by diluting 10× detection buffer to IX with deionized water in a ratio of 9:1.
(§6) JAK kinase was diluted with kinase reaction buffer to 4× final concentration (JAK1: 40 nM, JAK2: 0.5 nM).
(§7) ULight™-JAK-1 (Tyr1023) substrate was diluted with kinase reaction buffer to 200 nM (final concentration: 50 nM).
(§8) ATP was diluted with kinase reaction buffer to 4× final concentration (JAK1: 160 μM, JAK2: 40 μM).
(§9) Compound to be tested was dissolved with DMSO to obtain a 10 mM storage solution, which was diluted to desired concentrations by a 3-fold gradient; for each compound 10 concentration points were set, and the final concentration of the compound to be tested ranges from 10 μM to 0.5 nM.
(§10) EDTA was dissolved with 1× detection buffer to 40 mM (EDTA final concentration: 10 mM).
(§11) Eu-labeled detection antibody (anti-phosphotyrosine (PT66)) was diluted with 1× detection buffer to 8 nM (final antibody concentration: 2 nM).
(§12) (1) To a 384-well plate, 2.5 μL 4× kinase solution and 2.5 μL 4× test compound solution with different concentrations that have been diluted were added successively, each concentration was set in duplicate, and an enzyme solution blank control and a negative control (DMSO group) were also set.
(§13) (2) The 384-well plate was shaken to mix enzyme and compound well, and then centrifuged at 1000 rpm for 1 minute, and incubated at room temperature for 60 minutes.
(§14) (3) 2.5 μL 4× substrate solution was added to the 384-well plate and centrifuged at 1000 rpm for 1 minute.
(§15) (4) 2.5 μL 4× ATP solution was added to the 384-well plate and centrifuged at 1000 rpm for 1 minute, and then enzyme reaction was initiated.
(§16) (5) For JAK1 the reaction was carried out at room temperature for 2 hours, and for JAK2 the reaction was carried out at room temperature for 1 hour.
(6) For the JAK1 reaction, the final concentrations of components are as follows: JAK1: 10 nM, substrate: 50 nM, ATP: 40 μM; and the final concentration of the tested compounds ranges from 10μ M to 0.5 nM.
(§17) (7) After the enzyme reaction was completed, 5 μL 4× enzyme reaction termination solution was added to each well of the 384-well plate, and then centrifuged at 1000 rpm for 1 minute and incubated at room temperature for 5 minutes.
(§18) (8) 5 μL 4× detection antibody solution (the final concentration of detection antibody is 2 nM) was added to each well of the 384-well plate, and then centrifuged at 1000 rpm for 1 minute and incubated at room temperature for 1 hour.
(§19) (9) At the antibody incubation was completed, signal value of each well was measured on a Envision plate reader.
(§20) (1) The percentage inhibition rate corresponding to each concentration of the tested compound was calculated on the basis that the blank control of enzyme solution corresponds to 100% and the negative control (DMSO group) corresponds to 0%.
(§21) (2) A nonlinear regression analysis of the logarithm of the concentration of the detected compound and the corresponding percentage inhibition rate was performed in GraphPad Prism software to obtain the half-inhibiting concentration (IC50) of the tested compound.

A short description of data set [3]: Plasma pharmacokinetics in rats after single gavage. The class given is in vivo. The following applies: SD rats; for presence of the prodrug in plasma (in words): after gavage of the prodrug itself; for Cmax (ng · mL^−1) / Cmax / Tmax / AUC0-t: plasma. The protocol:
as §1, §2

Data set [4] deals with JAK2 (Homo sapiens, UniProt O60674). As to the kind of experiment: JAK2 kinase inhibition assay (ULight-JAK-1 substrate, Eu-labeled anti-phosphotyrosine antibody). The following applies: JAK2 0.125 nM, substrate 50 nM, ATP 10 μM, 1 hour at room temperature. The class given is biochemical. How it is done:
as §3, §4, §5, §6, §7, §8, §9, §10, §11, §12, §13, §14, §15, §16
For the JAK2 reaction, the final concentrations of component are as follows: JAK2: 0.125 nM, substrate: 50 nM, ATP: 10 μM; and the final concentration of the tested compound ranges from 10 μM to 0.5 nM.
as §17, §18, §19, §20, §21

The mark [5] stands for this setting: administration group Compound A1 50 mg/kg by gavage.
The mark [6] stands for this setting: administration group Compound A2 50 mg/kg by gavage.
[7] abbreviates: administration group Compound A3 40 mg/kg by gavage.
[8] abbreviates: administration group Compound B3 33 mg/kg (equimolar with B6) by gavage.
Where [9] appears, read: administration group Compound B6 50 mg/kg by gavage.
Where [10] appears, read: rat, po, administration group Compound B6 50 mg/kg by gavage, read-out: Cmax.
Setting [11] is: rat, po, administration group Compound B6 50 mg/kg by gavage, read-out: Tmax.

pIC50: −log10 of the molar value. Read-outs that look alike come from different tables or passages of the source.

JAK2, sequence (O60674 whole entry, species assumed): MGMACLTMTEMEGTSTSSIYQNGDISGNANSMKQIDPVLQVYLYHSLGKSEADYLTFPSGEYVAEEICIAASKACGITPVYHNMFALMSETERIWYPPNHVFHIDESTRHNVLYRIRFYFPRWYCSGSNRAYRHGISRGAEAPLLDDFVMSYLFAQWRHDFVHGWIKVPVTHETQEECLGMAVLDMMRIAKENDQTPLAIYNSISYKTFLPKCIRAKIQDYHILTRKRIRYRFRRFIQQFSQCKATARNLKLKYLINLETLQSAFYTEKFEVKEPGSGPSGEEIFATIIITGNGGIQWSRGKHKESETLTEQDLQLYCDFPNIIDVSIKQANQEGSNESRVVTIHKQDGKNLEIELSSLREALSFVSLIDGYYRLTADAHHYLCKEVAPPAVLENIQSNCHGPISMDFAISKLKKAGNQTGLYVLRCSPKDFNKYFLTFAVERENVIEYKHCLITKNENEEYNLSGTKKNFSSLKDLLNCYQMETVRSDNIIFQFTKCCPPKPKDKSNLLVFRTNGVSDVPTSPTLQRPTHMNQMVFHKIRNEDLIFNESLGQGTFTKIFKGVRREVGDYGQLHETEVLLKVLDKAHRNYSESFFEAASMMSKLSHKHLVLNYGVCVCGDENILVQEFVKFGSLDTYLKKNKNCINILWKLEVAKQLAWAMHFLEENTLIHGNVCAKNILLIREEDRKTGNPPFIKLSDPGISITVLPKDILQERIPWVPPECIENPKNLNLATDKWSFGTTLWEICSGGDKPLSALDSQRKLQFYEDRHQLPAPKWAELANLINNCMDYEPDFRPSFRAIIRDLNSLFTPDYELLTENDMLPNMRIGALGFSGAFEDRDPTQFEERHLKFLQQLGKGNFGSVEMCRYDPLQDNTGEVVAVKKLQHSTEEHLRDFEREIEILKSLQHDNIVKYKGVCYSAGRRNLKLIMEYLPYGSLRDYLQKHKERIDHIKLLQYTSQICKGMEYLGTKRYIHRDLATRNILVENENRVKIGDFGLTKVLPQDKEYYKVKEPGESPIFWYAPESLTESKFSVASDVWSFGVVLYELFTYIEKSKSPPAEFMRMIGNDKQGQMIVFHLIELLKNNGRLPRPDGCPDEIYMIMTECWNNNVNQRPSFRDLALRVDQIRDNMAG
JAK1, sequence (P23458 whole entry, species assumed): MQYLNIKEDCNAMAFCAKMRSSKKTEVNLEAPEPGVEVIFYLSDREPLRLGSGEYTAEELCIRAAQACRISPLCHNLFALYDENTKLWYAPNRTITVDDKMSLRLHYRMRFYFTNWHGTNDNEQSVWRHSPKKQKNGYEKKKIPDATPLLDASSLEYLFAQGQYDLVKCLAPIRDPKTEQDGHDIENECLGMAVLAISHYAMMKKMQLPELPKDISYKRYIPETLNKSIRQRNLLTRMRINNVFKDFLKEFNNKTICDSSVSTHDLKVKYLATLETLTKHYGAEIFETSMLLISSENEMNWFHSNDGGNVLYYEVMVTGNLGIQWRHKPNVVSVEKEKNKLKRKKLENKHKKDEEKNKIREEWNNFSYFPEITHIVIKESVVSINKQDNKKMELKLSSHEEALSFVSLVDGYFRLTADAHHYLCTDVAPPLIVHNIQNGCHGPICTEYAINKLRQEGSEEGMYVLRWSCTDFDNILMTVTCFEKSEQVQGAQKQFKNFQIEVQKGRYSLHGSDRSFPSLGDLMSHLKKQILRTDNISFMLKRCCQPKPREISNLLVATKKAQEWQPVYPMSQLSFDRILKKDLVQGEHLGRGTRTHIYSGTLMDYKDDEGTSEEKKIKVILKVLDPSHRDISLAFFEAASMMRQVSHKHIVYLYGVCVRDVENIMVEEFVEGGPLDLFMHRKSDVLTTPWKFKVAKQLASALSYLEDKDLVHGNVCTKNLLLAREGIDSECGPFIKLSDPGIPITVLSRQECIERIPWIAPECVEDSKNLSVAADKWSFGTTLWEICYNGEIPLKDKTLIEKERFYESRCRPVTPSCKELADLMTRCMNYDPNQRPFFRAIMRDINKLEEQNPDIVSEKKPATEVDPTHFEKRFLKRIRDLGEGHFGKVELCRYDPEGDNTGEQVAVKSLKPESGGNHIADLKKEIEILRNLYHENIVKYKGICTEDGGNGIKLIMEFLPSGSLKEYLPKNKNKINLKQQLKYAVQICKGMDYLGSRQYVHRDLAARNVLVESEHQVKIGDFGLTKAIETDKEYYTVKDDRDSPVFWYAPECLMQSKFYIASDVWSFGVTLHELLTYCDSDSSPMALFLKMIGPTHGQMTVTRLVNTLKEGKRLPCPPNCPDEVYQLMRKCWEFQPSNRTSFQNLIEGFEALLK

As a reminder, the pIC50 is the IC50 on a negative log10 scale, so that one unit is a factor of ten. Low values mean a high IC50, high ones a low IC50. On to `C[C@@H](OC(=O)CCc1ccccc1/N=N/c1ccc(O)c(C(=O)O)c1)c1nc2cnc3[nH]ccc3c2n1N1CCC(CC#N)CC1` [Compound A1, (R,E)-5-((2-(3-(1-(1-(4-(cyanomethyl)piperidin-1-yl)-1,6-dihydroimidazo[4,5-d]pyrrolo[2,3-b]pyridin-2-yl)ethoxy)-3-oxopropyl)phenyl)diazenyl)-2-hydroxybenzoic acid], for which the “Cumulative recovery rate at 24 h (%)” value in data set [1] (setting [5]) is on record as 83%. Moreover, the pIC50 in data set [2] is 6.88; in data set [4], 6.27. In addition, the “presence of the prodrug in plasma (in words)” value (shortened to “presence of the prodrug”) in data set [3] is reported as “absent or rarely present in plasma”. For the same molecule, the “Cmax (ng · mL^−1)” value in data set [3] (setting [5]) was “BLOQ”.

In the case of `C[C@@H](OC(=O)OCc1ccc(/N=N/c2ccc(O)c(C(=O)O)c2)cc1)c1nc2cnc3[nH]ccc3c2n1N1CCC(CC#N)CC1` [Compound A2, (R,E)-5-((4-((((1-(1-(4-cyanomethylpiperidin-1-yl)-1,6-dihydroimidazo[4,5-d]pyrrolo[2,3-b]pyridin-2-yl)ethoxy)carbonyl)oxy)methyl)phenyl)diazenyl)-2-hydroxybenzoic acid], the “Cumulative recovery rate at 24 h (%)” value in data set [1] (setting [6]) came out at 7.2%. Also, the pIC50 in data set [2] was 8.23; in data set [4] it was 7.57. Moreover, the “presence of the prodrug” value in data set [3] is “absent or rarely present in plasma”. The “Cmax (ng · mL^−1)” value in data set [3] (setting [6]) was “BLOQ”.

In general, Cmax refers to the peak of the concentration-time curve. By Tmax is commonly meant the time from dosing to the highest level. Turning to `C[C@@H](O)c1nc2cnc3[nH]ccc3c2n1N1CCC(CC#N)CC1` [Compound A13, (R)-2-(1-(2-(1-(hydroxyethyl))imidazo[4,5-d]pyrrolo[2,3-b]pyridin-1(6H)-yl)piperidin-4-yl)acetonitrile], the results for the “Cumulative recovery rate at 24 h (%)” value in data set [1] (setting [5]), in data set [1] (setting [6]) and in data set [1] (setting [7]) were 11.6%, 24.8% and 34.3%, respectively. Further, the “Cmax” value was 9.1 ng/mL in data set [3] (setting [5]), 80.6 ng/mL in data set [3] (setting [6]) and 69.9 ng/mL in data set [3] (setting [7]). Besides, the “Tmax” value in data set [3] (setting [5]) came to 12 h; in data set [3] (setting [6]) it was 4 h; in data set [3] (setting [7]), 12 h. The “AUC0-t” value was determined as 972 ng·h/g in data set [3] (setting [6]) and 836 ng·h/g in data set [3] (setting [7]).

On to `N#CC[C@H]1CC[C@H](n2c(N)nc3cnc4[nH]ccc4c32)CC1` [Compound B3, 2-((1R,4R)-4-(2-aminoimidazo[4,5-d]pyrrolo[2,3-b]pyridin-1(6H)-ethyl)cyclohexyl)acetonitrile], for which the “Cumulative recovery rate at 24 h (%)” value was 71.2% in data set [1] (setting [8]) and 82.1% in data set [1] (setting [9]). For the same molecule, the pIC50 in data set [2] was 10.40; in data set [4] it was 9.43. In addition, the “AUC0-t” value in data set [3] (setting [8]) was found to be 324 ng·h/g; in data set [3] (setting [9]) it was 69.1 ng·h/g. Further, the Cmax in data set [3] (rat, po, administration group Compound B3 33 mg/kg (equimolar with B6) by gavage, read-out: Cmax) stood at 126 ng/mL; in data set [3] (setting [10]), 4.8 ng/mL. Besides, the Tmax in data set [3] (rat, po, administration group Compound B3 33 mg/kg (equimolar with B6) by gavage, read-out: Tmax) came to 1.2 h; in data set [3] (setting [11]) it was 12 h.

For the molecule `N#CC[C@H]1CC[C@H](n2c(/N=N/c3ccc(O)c(C(=O)O)c3)nc3cnc4[nH]ccc4c32)CC1` [Compound B6, 5-((E)-(1-((1R,4R)-4-(cyanomethyl)cyclohexyl)-1,6-dihydroimidazo[4,5-d]pyrrolo[2,3-b]pyridin-2-yl)diazenyl)-2-hydroxybenzoic acid], the “Cumulative recovery rate at 24 h (%)” value in data set [1] (setting [9]) was 5.1%. Further, the pIC50 in data set [2] was 9.35; in data set [4] it was 9.09. In data set [3] (B6 50 mg/kg vs B3 33 mg/kg by gavage), the “blood system absorption (AUC0-t) of the active metabolite B3 after prodrug B6 compared with direct oral equimolar B3” value is “significant reduction”. Further, in data set [3], the “presence of the prodrug” value is on record as “absent or rarely present in plasma”. For the same molecule, the Cmax in data set [3] (setting [10]) worked out at 0.7 ng/mL. Further, the time of peak concentration (Tmax) in data set [3] (setting [11]) was 4 h.
